US20260308196A1, “HELICASE INHIBITORS” (H. LEE MOFFITT CANCER CENTER AND RESEARCH INSTITUTE, INC., priority 2023, published 2026)

Test system: T1, hCMG helicase
T1 construct: fork-unwinding strand displacement assay with ATP
Test: helicase assay (fork-unwinding; strand displacement assay)
Type: biochemical, human
Settings: 20 uL reactions: 1 uL DMSO or drugs, 2 uL hCMG (~15 fmol enzyme), 0.5 mM ATP; RF1-134 compared to CA1 (100% inhibition); drug concentration not given
Description: For 20 uL reactions: 1 uL DMSO or drugs, 2 uL hCMG (~15 fmol enzyme), and 0.5 mM ATP were added. The noviose sugar (purple box; called RF1-134) was generated using synthetic chemical approaches. […] CA1 refers to coumermycin-A1.

## CO[C@H]1[C@H](OC(=O)c2ccc(C)[nH]2)[C@H](O)[C@@H](Oc2ccc3c(O)c(NC(=O)c4c[nH]c(C(=O)Nc5c(O)c6ccc(O[C@H]7OC(C)(C)[C@@H](OC)[C@H](OC(=O)c8ccc(C)[nH]8)[C@@H]7O)c(C)c6oc5=O)c4C)c(=O)oc3c2C)OC1(C)C [CA1, coumermycin-A1]
  inhibition of hCMG helicase activity: 100%
